According to patent US9120752B2, “Pyridine compounds as sodium channel blockers” (Purdue Pharma, L.P., priority 2010, dated 2015):

What follows are molecules tested against human Nav1.7 (Homo sapiens (Human), UniProt Q15858) (assay: FLIPR or FLIPR TETRA sodium dye assay with KCl and test article pre-incubation). Conditions: sodium dye assay with KCl; recombinant Nav1.7/HEK293 cells; read-out: Nav1.7 IC50 (μM) ± SEM.
Type: cell-based

Chain of human Nav1.7 (Q15858 other isoform, or with tags, fused parts or gaps): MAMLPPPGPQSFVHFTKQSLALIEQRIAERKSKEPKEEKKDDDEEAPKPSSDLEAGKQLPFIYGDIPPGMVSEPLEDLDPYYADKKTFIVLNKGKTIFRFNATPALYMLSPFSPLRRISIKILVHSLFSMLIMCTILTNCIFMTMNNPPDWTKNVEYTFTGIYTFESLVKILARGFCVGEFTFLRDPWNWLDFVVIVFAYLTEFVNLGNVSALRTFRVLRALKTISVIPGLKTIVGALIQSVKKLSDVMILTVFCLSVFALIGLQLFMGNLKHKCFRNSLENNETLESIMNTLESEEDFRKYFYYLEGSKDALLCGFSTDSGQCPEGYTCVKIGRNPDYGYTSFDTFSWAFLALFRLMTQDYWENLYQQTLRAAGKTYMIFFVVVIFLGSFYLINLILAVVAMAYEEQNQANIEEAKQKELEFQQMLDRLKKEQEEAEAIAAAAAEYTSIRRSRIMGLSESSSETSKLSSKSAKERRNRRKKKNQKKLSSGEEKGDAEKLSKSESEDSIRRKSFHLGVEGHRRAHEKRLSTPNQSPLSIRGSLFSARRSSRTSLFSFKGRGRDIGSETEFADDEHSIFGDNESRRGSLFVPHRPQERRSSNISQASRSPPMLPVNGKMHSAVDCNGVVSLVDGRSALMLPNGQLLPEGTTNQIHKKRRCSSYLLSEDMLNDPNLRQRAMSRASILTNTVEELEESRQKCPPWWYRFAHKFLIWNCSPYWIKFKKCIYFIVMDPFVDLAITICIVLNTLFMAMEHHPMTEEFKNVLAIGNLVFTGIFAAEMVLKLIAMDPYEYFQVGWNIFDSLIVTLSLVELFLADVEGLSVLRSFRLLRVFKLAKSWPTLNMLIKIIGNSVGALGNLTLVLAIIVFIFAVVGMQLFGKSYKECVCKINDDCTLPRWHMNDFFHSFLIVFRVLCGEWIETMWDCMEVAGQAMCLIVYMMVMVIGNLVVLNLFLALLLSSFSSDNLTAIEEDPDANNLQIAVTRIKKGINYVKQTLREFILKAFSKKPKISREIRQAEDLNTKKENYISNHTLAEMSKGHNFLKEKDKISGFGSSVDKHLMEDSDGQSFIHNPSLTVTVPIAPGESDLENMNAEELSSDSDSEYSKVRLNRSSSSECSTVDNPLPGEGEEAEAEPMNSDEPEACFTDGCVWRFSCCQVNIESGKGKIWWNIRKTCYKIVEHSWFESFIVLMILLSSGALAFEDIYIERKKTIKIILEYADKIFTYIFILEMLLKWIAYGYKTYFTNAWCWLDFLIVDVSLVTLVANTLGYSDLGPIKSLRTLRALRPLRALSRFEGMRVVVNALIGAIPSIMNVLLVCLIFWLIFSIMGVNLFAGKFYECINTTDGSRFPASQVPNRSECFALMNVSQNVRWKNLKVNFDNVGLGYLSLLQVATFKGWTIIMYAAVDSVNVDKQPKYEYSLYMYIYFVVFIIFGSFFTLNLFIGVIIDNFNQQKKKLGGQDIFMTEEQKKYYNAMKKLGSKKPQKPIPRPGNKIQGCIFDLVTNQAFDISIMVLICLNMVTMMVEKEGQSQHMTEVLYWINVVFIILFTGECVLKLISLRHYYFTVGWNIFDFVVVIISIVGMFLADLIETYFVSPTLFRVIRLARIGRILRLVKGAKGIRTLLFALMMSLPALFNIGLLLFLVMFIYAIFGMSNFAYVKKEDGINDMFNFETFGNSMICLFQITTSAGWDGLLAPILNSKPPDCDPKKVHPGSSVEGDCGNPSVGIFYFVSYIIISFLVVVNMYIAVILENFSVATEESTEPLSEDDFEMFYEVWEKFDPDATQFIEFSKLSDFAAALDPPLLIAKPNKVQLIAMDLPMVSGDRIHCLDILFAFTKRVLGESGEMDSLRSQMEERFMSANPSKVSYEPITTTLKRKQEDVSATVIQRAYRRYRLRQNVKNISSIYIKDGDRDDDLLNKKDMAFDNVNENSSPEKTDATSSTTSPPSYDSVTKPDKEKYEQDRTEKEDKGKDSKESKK

SMILES | IC50
O=C(c1cccc(-c2ccc(Oc3ccc(F)cc3)cc2)n1)N1CCN(S(=O)(=O)c2ccc(OC(F)(F)F)cc2)CC1 [Compound 7, (6-(4-(4-fluorophenoxy)phenyl)pyridin-2-yl)(4-((4-(trifluoromethoxy)phenyl)sulfonyl)piperazin-1-yl)methanone] | 0.19 ± 0.05 µM
NC(=O)[C@@H](Cc1c[nH]c2ccccc12)NC(=O)c1cccc(-c2ccc(Oc3ccc(F)cc3)cc2)n1 [Compound 37, 6-[4-(4-fluoro-phenoxy)-phenyl]-pyridine-2-carboxylic acid [(R)-1-carbamoyl-2-(1H-indol-3-yl)-ethyl]-amide] | 4.02 ± 2.78 µM
N#Cc1cccc(S(=O)(=O)NCCNC(=O)c2cccc(-c3ccc(Oc4ccc(F)cc4)cc3)n2)c1 [Compound 24, N-(2-(3-cyanophenylsulfonamido)ethyl)-6-(4-(4-fluorophenoxy)phenyl)picolinamide] | 0.03 ± 0.04 µM
NCCCC[C@H](NC(=O)c1cccc(-c2ccc(Oc3ccc(F)cc3)cc2)n1)C(N)=O [Compound 51, (S)—N-(1,6-diamino-1-oxohexan-2-yl)-6-(4-(4-fluorophenoxy)phenyl)picolinamide] | 2.89 ± 0.33 µM
CC(C)C[C@H](NC(=O)c1cccc(-c2ccc(Oc3ccc(F)cc3)cc2)n1)C(N)=O [Compound 44, 6-[4-(4-fluoro-phenoxy)-phenyl]-pyridine-2-carboxylic acid ((S)-1-carbamoyl-3-methyl-butyl)-amide] | 0.34 ± 0.07 µM
N#Cc1ccc(S(=O)(=O)N2CCN(C(=O)c3cccc(-c4ccc(Oc5ccc(F)cc5)cc4)n3)CC2)cc1 [Compound 17, 4-((4-(6-(4-(4-fluorophenoxy)phenyl)picolinoyl)piperazin-1-yl)sulfonyl)benzonitrile] | 0.97 ± 0.13 µM
CC(O)[C@H](NC(=O)c1cccc(-c2ccc(Oc3ccc(F)cc3)cc2)n1)C(N)=O (stereo partly drawn) [Compound 43, 6-[4-(4-fluoro-phenoxy)-phenyl]-pyridine-2-carboxylic acid ((S)-1-carbamoyl-2-hydroxy-propyl)-amide] | 1.56 ± 0.5 µM
N#Cc1cccc(S(=O)(=O)N2CCN(C(=O)c3cc([C@H](O)CO)cc(-c4ccc(Oc5ccc(F)cc5)cc4)n3)CC2)c1 [Compound 58, (S)-3-((4-(4-(1,2-dihydroxyethyl)-6-(4-(4-fluorophenoxy)phenyl)picolinoyl)piperazin-1-yl)sulfonyl)benzonitrile] | 2.31 ± 0.62 µM
CC(C)C[C@H](NC(=O)c1cc([C@@H](O)CO)cc(-c2ccc(Oc3ccc(F)cc3)cc2)n1)C(N)=O [Compound 65, N—((S)-1-amino-4-methyl-1-oxopentan-2-yl)-4-((R)-1,2-dihydroxyethyl)-6-(4-(4-fluorophenoxy)phenyl)picolinamide] | 1.56 ± 0.166 µM
CS(=O)(=O)c1cccc(S(=O)(=O)N2CCN(C(=O)c3cccc(-c4ccc(Oc5ccc(F)cc5)cc4)n3)CC2)c1 [Compound 8, (6-(4-(4-fluorophenoxy)phenyl)pyridin-2-yl)(4-((3-(methylsulfonyl)phenyl)sulfonyl)piperazin-1-yl)methanone] | 0.78 ± 0.17 µM
O=C(c1cccc(-c2ccc(Oc3ccc(F)cc3)cc2)n1)N1CCN(S(=O)(=O)c2cccnc2)CC1 [Compound 15, (6-(4-(4-fluorophenoxy)phenyl)pyridin-2-yl)(4-(pyridin-3-ylsulfonyl)piperazin-1-yl)methanone] | 0.42 ± 0.04 µM
NC(=O)[C@H](Cc1ccc(O)cc1)NC(=O)c1cccc(-c2ccc(Oc3ccc(F)cc3)cc2)n1 [Compound 48, 6-[4-(4-fluoro-phenoxy)-phenyl]-pyridine-2-carboxylic acid [(S)-1-carbamoyl-2-(4-hydroxy-phenyl)-ethyl]-amide] | 0.55 ± 0.08 µM
N#Cc1cccc(S(=O)(=O)N2CCN(C(=O)c3cccc(-c4ccc(F)cc4)n3)CC2)c1 [Compound 56, 3-((4-(6-(4-fluorophenyl)picolinoyl)piperazin-1-yl)sulfonyl)benzonitrile] | 6.81 ± 0.57 µM
NC(=O)[C@H](Cc1ccccc1)NC(=O)c1cccc(-c2ccc(Oc3ccc(F)cc3)cc2)n1 [Compound 41, 6-[4-(4-fluoro-phenoxy)-phenyl]-pyridine-2-carboxylic acid ((S)-1-carbamoyl-2-phenyl-ethyl)-amide] | > 20 µM
NC(=O)[C@@H](CO)NC(=O)c1cccc(-c2ccc(Oc3ccc(F)cc3)cc2)n1 [Compound 40, 6-[4-(4-fluoro-phenoxy)-phenyl]-pyridine-2-carboxylic acid ((R)-1-carbamoyl-2-hydroxyl-ethyl)-amide] | 1.32 ± 0.16 µM
CS(=O)(=O)c1cccc(S(=O)(=O)NCCNC(=O)c2cccc(-c3ccc(Oc4ccc(F)cc4)cc3)n2)c1 [Compound 23, 6-(4-(4-fluorophenoxy)phenyl)-N-(2-(3-(methylsulfonyl)phenylsulfonamido)ethyl)picolinamide] | 0.39 ± 0.03 µM
NC(=O)C[C@H](NC(=O)c1cccc(-c2ccc(Oc3ccc(F)cc3)cc2)n1)C(N)=O [Compound 39, (S)-2-({6-[4-(4-fluoro-phenoxy)-phenyl]-pyridine-2-carbonyl}-amino)-succinamide] | 0.75 ± 0.05 µM
NC(=O)C[C@H](NC(=O)c1cc([C@H](O)CO)cc(-c2ccc(Oc3ccc(F)cc3)cc2)n1)C(N)=O [Compound 64, (S)-2-(4-((S)-1,2-dihydroxyethyl)-6-(4-(4-fluorophenoxy)phenyl)picolinamido)succinamide] | > 20 µM
CS(=O)(=O)N1CCN(C(=O)c2cccc(-c3ccc(Oc4ccc(F)cc4)cc3)n2)CC1 [Compound 13, (6-(4-(4-fluorophenoxy)phenyl)pyridin-2-yl)(4-(methylsulfonyl)piperazin-1-yl)methanone] | 1.31 ± 0.18 µM
NC(=O)C[C@H](NC(=O)c1cc([C@@H](O)CO)cc(-c2ccc(Oc3ccc(F)cc3)cc2)n1)C(N)=O [Compound 66, (S)-2-(4-((R)-1,2-dihydroxyethyl)-6-(4-(4-fluorophenoxy)phenyl)picolinamido) succinamide] | > 20 µM
C[C@H](NC(=O)c1cccc(-c2ccc(Oc3ccc(C(F)(F)F)cn3)cc2)n1)C(N)=O [Compound 61, (S)—N-(1-amino-1-oxopropan-2-yl)-6-(4-((5-(trifluoromethyl)pyridin-2-yl)oxy)phenyl)picolinamide] | 4.34 ± 0.73 µM
CC(C)[C@H](NC(=O)c1cccc(-c2ccc(Oc3ccc(F)cc3)cc2)n1)C(N)=O [Compound 46, 6-[4-(4-fluoro-phenoxy)-phenyl]-pyridine-2-carboxylic acid ((S)-1-carbamoyl-2-methyl-propyl)-amide] | 0.61 ± 0.05 µM
CC1(C)C2CCC1(CS(=O)(=O)N1CCN(C(=O)c3cccc(-c4ccc(Oc5ccc(F)cc5)cc4)n3)CC1)C(=O)C2 (stereo not shown) [Compound 12, 1-(((4-(6-(4-(4-fluorophenoxy)phenyl)picolinoyl)piperazin-1-yl)sulfonyl)methyl)-7,7-dimethylbicyclo[2.2.1]heptan-2-one] | 0.14 ± 0.04 µM
CS(=O)(=O)NCCNC(=O)c1cccc(-c2ccc(Oc3ccc(F)cc3)cc2)n1 [Compound 21, 6-(4-(4-fluorophenoxy)phenyl)-N-(2-(methylsulfonamido)ethyl)picolinamide] | 0.39 ± 0.08 µM
N#Cc1cccc(S(=O)(=O)N2CCN(C(=O)c3cccc(-c4ccc(Oc5ccc(F)cc5)cc4)n3)CC2)c1 [Compound 10, 3-((4-(6(4-(4-fluorophenoxy)phenyl)picolinoyl)piprazin-1-yl)sulfonyl)benzonitrile] | 0.43 ± 0.11 µM
